Measurements reported in PubChem BioAssay AID256 (DTP/NCI, 2004).
Inconclusive results and toxic doses are left out. Rule for the calls: active = survival T/C of 150% or more; inactive = T/C below 125% in these data.

Test system: CD2F1 mice, L1210 leukemia ip, survival T/C
Assay: NCI In Vivo Anticancer Drug Screen. Data for tumor model L1210 Leukemia (intraperitoneal) in CD2F1 (CDF1) mice
Details: endpoint: mean survival time, higher = longer survival
Procedure, shortened: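 Activity against a transplanted murine tumor was judged by comparing the compound group with a vehicle group. The outcome in the treated animals was divided by that in the controls.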

Measured: T/C

COc1cc2ccc(/C=C\[N+](=O)[O-])cc2cc1OC
inactive: dose: 12.5 mg/kg/injection, schedule: Q01DX009 (ip), vehicle: water 94 % of control | dose: 25.0 mg/kg/injection, schedule: Q01DX009 (ip), vehicle: water 102 % of control | dose: 50.0 mg/kg/injection, schedule: Q01DX009 (ip), vehicle: water 96 % of control

CC(=O)C(N=Nc1cccc2c1C(=O)c1ccccc1C2=O)C(=O)Nc1ccccc1C (centres undefined)
inactive: dose: 75.0 mg/kg/injection, schedule: Q01DX001 (ip), vehicle: saline 98 % of control | dose: 150.0 mg/kg/injection, schedule: Q01DX001 (ip), vehicle: saline 93 % of control | dose: 300.0 mg/kg/injection, schedule: Q01DX001 (ip), vehicle: saline 96 % of control

CCCCCCCCCCCCCCCCCCC(C)c1ccccc1 (centres undefined)
inactive: dose: 100.0 mg/kg/injection, schedule: Q01DX001 (ip), vehicle: saline with Tween-80 101 % of control | dose: 200.0 mg/kg/injection, schedule: Q01DX001 (ip), vehicle: saline with Tween-80 97 % of control | dose: 400.0 mg/kg/injection, schedule: Q01DX001 (ip), vehicle: saline with Tween-80 101 % of control
